Columns and labels:
Assay type in all cases: in vivo
[1] = tested on: redroot pigweed (Amaranthus retroflexus, AMARE); assay: Pre-emerge test, greenhouse herbicide activity screening; conditions: rated 14 days after application, 0 = no damage, 100 = complete death
How it was run: (§1)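 Plants grown in 10 cm pots of sandy loam mix received acetone-dissolved compounds through a moving flat-fan nozzle. Doses ranged from 15 to 1000 g ai/ha. Pre-emerge pots were seeded one day earlier, post-emerge pots 8–21 days earlier. Fourteen days on, each pot was graded 0–100 for damage.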

[2] = tested on: upland rice (Oryza sp., var. Tebonnet, RICE); assay: Pre-emerge test, crop safety; conditions: rated 14 days after application, 0 = no damage, 100 = complete death
How it was run: (§2)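 Applied at 15–1000 g ai/ha from acetone in 187 l/ha spray volume. Post-emergence applications included 0.25% v/v non-ionic surfactant and reached plants sown 8–21 days before. Pre-emergence applications were incorporated by surface watering. Efficacy or crop damage was rated on a 0–100 scale after 14 days.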

[3] = tested on: field corn (Zea mays L., var. Dekalb 535, CORN); assay: Pre-emerge test, crop safety; conditions: rated 14 days after application, 0 = no damage, 100 = complete death
How it was run: as §2

[4] = tested on: sicklepod (Cassia obtusifolia, CASOB); assay: Pre-emerge test, greenhouse herbicide activity screening; conditions: rated 14 days after application, 0 = no damage, 100 = complete death
How it was run: as §2

[5] = tested on: green foxtail (Setaria viridis, SETVI); assay: as above; conditions: rated 14 days after application, 0 = no damage, 100 = complete death
How it was run: as §2

[6] = tested on: velvetleaf (Abutilon theophrasti, ABUTH); assay: as above; conditions: rated 14 days after application, 0 = no damage, 100 = complete death
How it was run: as §2

[7] = tested on: barnyardgrass (Echinochloa crus-galli, ECHCG); assay: as above; conditions: rated 14 days after application, 0 = no damage, 100 = complete death
How it was run: as §2

[8] = tested on: ivyleaf morningglory (Ipomoea hederacea, IPOHE); assay: as above; conditions: rated 14 days after application, 0 = no damage, 100 = complete death
How it was run: as §2

[9] = tested on: johnsongrass (Sorghum halepense, SORHA); assay: as above; conditions: rated 14 days after application, 0 = no damage, 100 = complete death
How it was run: as §2

[10] = tested on: large crabgrass (Digitaria sanguinalis, DIGSA); assay: as above; conditions: rated 14 days after application, 0 = no damage, 100 = complete death
How it was run: as §2

[11] = tested on: lambsquarters (Chenopodium album, CHEAL); assay: as above; conditions: rated 14 days after application, 0 = no damage, 100 = complete death
How it was run: as §2

[12] = tested on: redroot pigweed (Amaranthus retroflexus, AMARE); assay: Post-emerge test, greenhouse herbicide activity screening; conditions: post-emerge, 14 days after application, rating scale 0-100
How it was run: as §1

[13] = tested on: sicklepod (Cassia obtusifolia, CASOB); assay: as above; conditions: post-emerge, 14 days after application, rating scale 0-100
How it was run: as §1

[14] = tested on: green foxtail (Setaria viridis, SETVI); assay: as above; conditions: post-emerge, 14 days after application, rating scale 0-100
How it was run: as §1

[15] = tested on: velvetleaf (Abutilon theophrasti, ABUTH); assay: as above; conditions: post-emerge, 14 days after application, rating scale 0-100
How it was run: as §1

[16] = tested on: barnyardgrass (Echinochloa crus-galli, ECHCG); assay: as above; conditions: post-emerge, 14 days after application, rating scale 0-100
How it was run: as §1

[17] = tested on: ivyleaf morningglory (Ipomoea hederacea, IPOHE); assay: as above; conditions: post-emerge, 14 days after application, rating scale 0-100
How it was run: as §1

[18] = tested on: johnsongrass (Sorghum halepense, SORHA); assay: as above; conditions: post-emerge, 14 days after application, rating scale 0-100
How it was run: as §1

[19] = tested on: large crabgrass (Digitaria sanguinalis, DIGSA); assay: as above; conditions: post-emerge, 14 days after application, rating scale 0-100
How it was run: as §1

[20] = tested on: lambsquarters (Chenopodium album, CHEAL); assay: as above; conditions: post-emerge, 14 days after application, rating scale 0-100
How it was run: as §1

[21] = tested on: upland rice (Oryza sp., var. Tebonnet, RICE); assay: Post-emerge test, crop safety; conditions: post-emerge, 14 days after application, rating scale 0-100
How it was run: as §2

[22] = tested on: field corn (Zea mays L., var. Dekalb 535, CORN); assay: Post-emerge test, crop safety; conditions: post-emerge, 14 days after application, rating scale 0-100
How it was run: as §2

Cn1c(C(F)(F)F)cc(=O)n(-c2c(F)cc(Cl)c(OCC#N)c2N(C(=O)c2ccc(F)cc2F)C(=O)c2ccc(F)cc2F)c1=O [2-45]
20: phytotoxicity rating AMARE ([12]; 250 g ai/ha) | phytotoxicity rating CASOB ([13]; 250 g ai/ha) | phytotoxicity rating IPOHE ([17]; 63 g ai/ha)
10: phytotoxicity rating AMARE ([12]; 63 g ai/ha) | phytotoxicity rating RICE ([21]; 250 g ai/ha)
70: Pre-emerge Herbicidal Activity, phytotoxicity rating (0-100), AMARE ([1]; 63 g ai/ha) | Pre-emerge Herbicidal Activity, phytotoxicity rating (0-100), ABUTH ([6]; 250 g ai/ha)
5: phytotoxicity rating CORN ([22]; 250 g ai/ha)
60: Pre-emerge Herbicidal Activity, phytotoxicity rating (0-100), CHEAL ([11]; 63 g ai/ha)
30: Pre-emerge Herbicidal Activity, phytotoxicity rating (0-100), SETVI ([5]; 250 g ai/ha) | phytotoxicity rating ABUTH ([15]; 63 g ai/ha) | phytotoxicity rating IPOHE ([17]; 250 g ai/ha) | phytotoxicity rating CHEAL ([20]; 63 g ai/ha) | phytotoxicity rating CHEAL ([20]; 250 g ai/ha)
0: Pre-emerge phytotoxicity rating (0-100), crop damage, RICE ([2]; 63 g ai/ha) | Pre-emerge phytotoxicity rating (0-100), crop damage, RICE ([2]; 250 g ai/ha) | Pre-emerge phytotoxicity rating (0-100), crop damage, CORN ([3]; 63 g ai/ha) | Pre-emerge phytotoxicity rating (0-100), crop damage, CORN ([3]; 250 g ai/ha) | Pre-emerge Herbicidal Activity, phytotoxicity rating (0-100), CASOB ([4]; 63 g ai/ha) | Pre-emerge Herbicidal Activity, phytotoxicity rating (0-100), CASOB ([4]; 250 g ai/ha) | Pre-emerge Herbicidal Activity, phytotoxicity rating (0-100), SETVI ([5]; 63 g ai/ha) | Pre-emerge Herbicidal Activity, phytotoxicity rating (0-100), ABUTH ([6]; 63 g ai/ha) | Pre-emerge Herbicidal Activity, phytotoxicity rating (0-100), ECHCG ([7]; 250 g ai/ha) | Pre-emerge Herbicidal Activity, phytotoxicity rating (0-100), IPOHE ([8]; 63 g ai/ha) | Pre-emerge Herbicidal Activity, phytotoxicity rating (0-100), IPOHE ([8]; 250 g ai/ha) | Pre-emerge Herbicidal Activity, phytotoxicity rating (0-100), SORHA ([9]; 63 g ai/ha) | Pre-emerge Herbicidal Activity, phytotoxicity rating (0-100), SORHA ([9]; 250 g ai/ha) | Pre-emerge Herbicidal Activity, phytotoxicity rating (0-100), DIGSA ([10]; 63 g ai/ha) | Pre-emerge Herbicidal Activity, phytotoxicity rating (0-100), DIGSA ([10]; 250 g ai/ha) | phytotoxicity rating CASOB ([13]; 63 g ai/ha) | phytotoxicity rating SETVI ([14]; 63 g ai/ha) | phytotoxicity rating ECHCG ([16]; 63 g ai/ha) | phytotoxicity rating ECHCG ([16]; 250 g ai/ha) | phytotoxicity rating SORHA ([18]; 63 g ai/ha) | phytotoxicity rating SORHA ([18]; 250 g ai/ha) | phytotoxicity rating DIGSA ([19]; 63 g ai/ha) | phytotoxicity rating DIGSA ([19]; 250 g ai/ha) | phytotoxicity rating RICE ([21]; 63 g ai/ha) | phytotoxicity rating CORN ([22]; 63 g ai/ha)
40: phytotoxicity rating SETVI ([14]; 250 g ai/ha) | phytotoxicity rating ABUTH ([15]; 250 g ai/ha)
00: Pre-emerge Herbicidal Activity, phytotoxicity rating (0-100), ECHCG ([7]; 63 g ai/ha)
100: Pre-emerge Herbicidal Activity, phytotoxicity rating (0-100), AMARE ([1]; 250 g ai/ha)
90: Pre-emerge Herbicidal Activity, phytotoxicity rating (0-100), CHEAL ([11]; 250 g ai/ha)
